Reference: patent US20260053811A1, “METHODS OF TREATING HYPERTENSION IN OBESE SUBJECTS” (Mineralys Therapeutics, Inc., priority 2022, published 2026)

Test system: hypertensive subjects
Test: Seated automated office blood pressure (AOBP) in randomized, placebo-controlled, dose-ranging study
Format: in vivo, human
Conditions: Part 1
Experimental: A randomized, double-blinded, placebo-controlled, dose-ranging, multicenter study was conducted to evaluate the effect of orally administered Compound A HBr on blood pressure for the treatment of hypertension in male and female subjects ≥18 years of age.
The study consists of two parts. For enrollment into Part 1 of the study, a subject's value of plasma renin activity (PRA) must be ≤1 ng/mL/h based on morning measurement. If the value of PRA >1 ng/mL/h based on morning measurement, then subjects may be eligible to enter Part 2 of the study.
For Part 1, 163 enrolled subjects ≥18 years of age were randomized into 6 equal treatment groups (1:1:1:1:1:1) to 12.5 mg BID, 25 mg BID, 12.5 mg QD, 50 mg QD, 100 mg QD, or placebo. After a review of interim clinical data, the 2 lowest dose levels (12.5 mg QD and 12.5 mg BID) were stopped for future randomization due to a lack of consistent meaningful reduction of blood pressure, but the patients randomized to that point remained in the study through completion. Thus, after the review of interim clinical data, subjects were randomized into 4 equal treatment groups (1:1:1:1) to 25 mg BID, 50 mg QD, 100 mg QD, or placebo.
For Part 2, 36 enrolled subjects ≥18 years of age were randomized (5:1) to either 100 mg QD Compound A HBr or placebo such that the Compound A HBr treatment group consisted of approximately 30 subjects and the placebo treatment group will consist of approximately 6 subjects.
Subjects orally administered the assigned study drug (Compound A HBr or placebo) according to the assigned dosing regimen for 8 weeks beginning on Study Day 1. All subjects in Part 1 (regardless of dosing group) received BID dosing to preserve the integrity of the blind; active drug is administered as the morning dose for all QD dose groups. Subjects returned to the research facility or were seen by the clinical investigator or approved home health care professional at the end of Study Weeks 1, 2, 3, 4, 5, 6, 7, and 8 (±2 days) for protocol-defined efficacy and safety assessments and procedures, assessment of adverse events (AEs), and confirmation of compliance with study drug usage. Subjects also completed a telephone visit and blood pressure (BP) check at home approximately 3 days post last dose of study drug. Subjects attended up to 14 full clinic visits, including a pre-Screening visit, a Screening/start of Placebo Run-in visit, a second visit during Placebo Run-in, a clinic visit to initiate the ABPM procedure, a Randomization visit, 8 weekly visits during double-blind treatment, and an end-of-study visit scheduled 4 weeks after the last study treatment for final efficacy and safety assessments.
An automated oscillometric sphygmomanometer device was used to measure the subjects' systolic and diastolic blood pressure in office after approximately 5 minutes of rest in the seated position.
The primary endpoint is the change in office-measured (mean of last 2 of 5 unattended measurements using an automated oscillometric sphygmomanometer device after approximately 5 minutes of rest in the seated position) systolic blood pressure (SBP) from baseline to the end of Study Week 8.
Secondary endpoints of this study were: • (a) Change in 24-hour ambulatory blood pressure monitoring (ABPM) parameters (systolic and diastolic) from baseline to the end of Study Week 7. • (b) Change in office-measured SBP from baseline to the end of Study Weeks 1, 2, 3, 4, 5, 6, and 7. • (c) Change in office-measured diastolic blood pressure (DBP) from baseline to the end of Study Weeks 1, 2, 3, 4, 5, 6, 7, and 8. • (d) Proportion of subjects who achieve office-measured BP of ≤130/80 mm Hg by the end of Study Week 8.

[1] = 12.5 mg BID, Seated SBP Tertile High
[2] = 12.5 mg BID, Seated SBP Tertile Middle
[3] = 12.5 mg BID, Systolic Blood Pressure Tertile at Baseline High
[4] = 12.5 mg BID, Systolic Blood Pressure Tertile at Baseline Low
[5] = 12.5 mg BID, Systolic Blood Pressure Tertile at Baseline Middle
[6] = 12.5 mg BID, Thiazide Diuretic Use at Baseline No
[7] = 12.5 mg BID, Thiazide Diuretic Use at Baseline Yes

CC(=O)N[C@H]1CC[C@H](NC(=O)CN2CCN(c3nncc(-c4ccc(C)cc4)n3)CC2)CC1 [Compound A HBr]
Mean (SD) Change from Baseline at Week 8 in Automated Office-Measured Diastolic Blood Pressure (12.5 mg BID, Race Black or AA): 0.21 (7.03) mmHg | Mean (SD) Change from Baseline at Week 8 in Automated Office-Measured Systolic Blood Pressure (12.5 mg BID, Race Black or AA): −7.43 (20.17) mmHg | Mean (SD) Automated Office-Measured Diastolic Blood Pressure at Wk 8 (12.5 mg BID, Race Other): 72.92 (10.54) mmHg | Mean (SD) Automated Office-Measured Systolic Blood Pressure at Wk 8 (12.5 mg BID, Race Other): 128.50 (11.84) mmHg | Mean (SD) Change from Baseline at Week 8 in Automated Office-Measured Diastolic Blood Pressure (12.5 mg BID, Race Other): −9.38 (7.89) mmHg | Mean (SD) Change from Baseline at Week 8 in Automated Office-Measured Systolic Blood Pressure (12.5 mg BID, Race Other): −17.50 (15.80) mmHg | Mean (SD) Automated Office-Measured Diastolic Blood Pressure at Wk 8 [1]: 74.86 (11.87) mmHg | Mean (SD) Change from Baseline at Week 8 in Automated Office-Measured Diastolic Blood Pressure [1]: −6.93 (7.79) mmHg | Mean (SD) Automated Office-Measured Diastolic Blood Pressure at Wk 8 (12.5 mg BID, Seated SBP Tertile Low): 78.50 (9.88) mmHg | Mean (SD) Automated Office-Measured Diastolic Blood Pressure at Wk 8 [2]: 73.88 (9.48) mmHg | Mean (SD) Change from Baseline at Week 8 in Automated Office-Measured Diastolic Blood Pressure [2]: −6.69 (10.60) mmHg | Mean (SD) Automated Office-Measured Diastolic Blood Pressure at Wk 8 (12.5 mg BID, Sex Female): 74.07 (10.32) mmHg | Mean (SD) Automated Office-Measured Systolic Blood Pressure at Wk 8 (12.5 mg BID, Sex Female): 131.00 (14.17) mmHg | Mean (SD) Change from Baseline at Week 8 in Automated Office-Measured Diastolic Blood Pressure (12.5 mg BID, Sex Female): −5.25 (9.78) mmHg | Mean (SD) Change from Baseline at Week 8 in Automated Office-Measured Systolic Blood Pressure (12.5 mg BID, Sex Female): −12.46 (18.69) mmHg | Mean (SD) Automated Office-Measured Systolic Blood Pressure at Wk 8 [3]: 131.86 (14.81) mmHg | Mean (SD) Change from Baseline at Week 8 in Automated Office-Measured Systolic Blood Pressure [3]: −24.93 (18.46) mmHg | Mean (SD) Automated Office-Measured Systolic Blood Pressure at Wk 8 [4]: 132.25 (10.34) mmHg | Mean (SD) Change from Baseline at Week 8 in Automated Office-Measured Systolic Blood Pressure [4]: −0.75 (5.48) mmHg | Mean (SD) Automated Office-Measured Systolic Blood Pressure at Wk 8 [5]: 131.75 (14.00) mmHg | Mean (SD) Change from Baseline at Week 8 in Automated Office-Measured Systolic Blood Pressure [5]: −10.56 (16.34) mmHg | Automated Office-Measured Diastolic Blood Pressure, Week 8, Mean (SD) [6]: 79.57 (10.75) mmHg | Mean (SD) Automated Office-Measured Systolic Blood Pressure at Wk 8 [6]: 139.29 (13.28) mmHg | Mean (SD) Change from Baseline at Week 8 in Automated Office-Measured Diastolic Blood Pressure [6]: −3.29 (8.80) mmHg | Mean (SD) Change from Baseline at Week 8 in Automated Office-Measured Systolic Blood Pressure [6]: −4.43 (15.93) mmHg | Automated Office-Measured Diastolic Blood Pressure, Week 8, Mean (SD) [7]: 72.67 (9.15) mmHg | Mean (SD) Automated Office-Measured Systolic Blood Pressure at Wk 8 [7]: 127.58 (11.07) mmHg | Mean (SD) Change from Baseline at Week 8 in Automated Office-Measured Diastolic Blood Pressure [7]: −7.33 (8.79) mmHg | Mean (SD) Change from Baseline at Week 8 in Automated Office-Measured Systolic Blood Pressure [7]: −19.25 (16.90) mmHg | Mean (SD) Automated Office-Measured Systolic Blood Pressure at Wk 8 (12.5 mg QD, ACEi/ARB No): 138.25 (20.45) mmHg | Mean (SD) Change from Baseline at Week 8 in Automated Office-Measured Systolic Blood Pressure (12.5 mg QD, ACEi/ARB No): −8.50 (31.61) mmHg | Mean (SD) Automated Office-Measured Systolic Blood Pressure at Wk 8 (12.5 mg QD, ACEi/ARB Yes): 141.50 (23.12) mmHg | Mean (SD) Change from Baseline at Week 8 in Automated Office-Measured Systolic Blood Pressure (12.5 mg QD, ACEi/ARB Yes): −6.39 (16.84) mmHg | Mean (SD) Automated Office-Measured Diastolic Blood Pressure at Wk 8 (12.5 mg QD, ACEi/ARBs No): 73.25 (13.50) mmHg | Mean (SD) Change from Baseline at Week 8 in Automated Office-Measured Diastolic Blood Pressure (12.5 mg QD, ACEi/ARBs No): −5.50 (11.85) mmHg | Mean (SD) Automated Office-Measured Diastolic Blood Pressure at Wk 8 (12.5 mg QD, ACEi/ARBs Yes): 83.79 (17.89) mmHg | Mean (SD) Change from Baseline at Week 8 in Automated Office-Measured Diastolic Blood Pressure (12.5 mg QD, ACEi/ARBs Yes): −0.71 (13.94) mmHg | Mean (SD) Automated Office-Measured Diastolic Blood Pressure at Wk 8 (12.5 mg QD, AHTs 2): 80.80 (18.35) mmHg | Mean (SD) Automated Office-Measured Systolic Blood Pressure at Wk 8 (12.5 mg QD, AHTs 2): 142.80 (25.41) mmHg | Mean (SD) Change from Baseline at Week 8 in Automated Office-Measured Diastolic Blood Pressure (12.5 mg QD, AHTs 2): −4.60 (10.04) mmHg | Mean (SD) Change from Baseline at Week 8 in Automated Office-Measured Systolic Blood Pressure (12.5 mg QD, AHTs 2): −9.70 (21.49) mmHg | Mean (SD) Automated Office-Measured Diastolic Blood Pressure at Wk 8 (12.5 mg QD, AHTs ≥3): 82.25 (16.96) mmHg | Mean (SD) Automated Office-Measured Systolic Blood Pressure at Wk 8 (12.5 mg QD, AHTs ≥3): 138.25 (18.26) mmHg | Mean (SD) Change from Baseline at Week 8 in Automated Office-Measured Diastolic Blood Pressure (12.5 mg QD, AHTs ≥3): 1.75 (16.61) mmHg | Mean (SD) Change from Baseline at Week 8 in Automated Office-Measured Systolic Blood Pressure (12.5 mg QD, AHTs ≥3): −3.31 (18.37) mmHg | Mean (SD) Automated Office-Measured Diastolic Blood Pressure at Wk 8 (12.5 mg QD, Age 65-79 yr): 77.25 (5.52) mmHg
